Measurements from US20030225007A1, “Sulfonamide derivatives of 3-substituted imidazol[1,2-d]-1,2,4-thiadiazoles and 3-substituted-[1,2,4] thiadiazolo[4,5-a] benzimidazole as inhibitors of fibrin cross-linking and transglutaminases” (Apotex Inc., priority 2002, published 2003).

System: platelet-depleted and platelet-rich human plasma clots
Experiment: Acceleration of fibrinolysis of platelet-depleted and platelet-rich plasma clots (t-PA lysis)
Type: biochemical
Details: platelet-depleted and platelet-rich human plasma clots made with varying inhibitor concentrations; lysis with 300 IU/mL t-PA; FIG. 3
Procedure: Platelet rich (platelet count: 150,000-300,000 mm^−3) or platelet-depleted citrated human plasma was prepared from at least three donors. Plasma (0.3 mL), containing 2-4 μg/mL of ^125I-labeled fibrinogen (specific activity approx. 200 μCi/mg, at least 85% clotability, Amersham Pharmacia Biotech UK Ltd.), was clotted by the addition of CaCl2 (6.4 μL) to a final concentration of 50 mM and thrombin (6.2 μL) to a final concentration of 5 units/mL. Solutions of Factor XIIIa inactivators in DMSO were added just prior to the addition of thrombin and CaCl2. In some cases the inactivator was dissolved and added to plasma in water. To these samples, DMSO (3.2 μL) was mixed in to make 1% final concentration. Conversely, water (3.2 μL) was added to clots to which inactivator was added in DMSO. […] The progress of the fibrinolysis was followed by quantitating the amount of radioactivity in a 20 μL aliquot of the lysis buffer at various lysis times. To measure the total amount of radioactivity in the clots taken for lysis, 0.6 mg bovine trypsin was added to each sample at the end of the lysis and the solutions were incubated for 4 hours at 37° C., or until the digestion was complete. An aliquot (20 μL) of the resulting solution was counted in the liquid scintillation counter. Per cent of fibrinolysis was then calculated with a correction for sub-sampling. […]

## O=C(O)CN(CCCCCCNS(=O)(=O)c1ccccc1[N+](=O)[O-])c1nsc2nccn12 [H / CH2CO2H / 2-NO2-Ph, N-imidazo[1,2-d][1,2,4]thiadiazol-3-yl-N-(6-{[(2-nitrophenyl)sulfonyl]amino}hexyl)glycine]
  fibrinolysis of plasma clots: acceleration of fibrinolysis
